Source: patent US5393786A, “Method for treating inflammation, ischemia-induced cell damage and muscular dystrophy” (priority 1993, dated 1995)
Read-outs that look alike come from different tables or passages of the source.

Assays:
[1] = Chemical Abstracts, 78, 132326f (1973); cited from earlier work
[2] = test system: adjuvant-induced arthritis (uninjected hind paw); assay: Developing Adjuvant-Induced Arthritis Test in Rats; format: in vivo, male Lewis-Wistar rats; conditions: po, 720 h, AUC days 16-30
dystrophic mice (dy/dy) = assay: Muscular Dystrophy Animal Model, life span of dystrophic mice; format: in vivo; conditions: 0.03 wgt % of compound in diet; control 73 days
Procedure: Dystrophic mice (dy/dy) were obtained from Jackson Laboratories after weaning (approximately 21 days) and treatment with the compound shown in Table IV was begun at the first sign of dystrophy. The compound was administered in the diet and lifespan was measured during the course of treatment. The food and water sources were located in different parts of the cage requiring the animals to walk from the food source to the water source to survive.

[3] = test system: hippocampal CA1 pyramidal cell layer; assay: Stroke model in rats (four-vessel occlusion), hippocampal CA1 damage
Source text: (§1) Strokes were produced in rats by occluding the four arteries that supply blood to the brain according to the following procedure. Male Wistar rats (250-280 g; Hilltop Laboratories, Scottsdale, Pa.) were anesthetized with metofane and placed into a stereotaxic instrument. A longitudinal incisio was made on the dorsal surface of the neck. The neck muscles were reflected to expose the dorsal surface of the spinal column. The two vertebral arteries were exposed where they pass through the first cervica vertebra. Both arteries were permanently occluded by the application of electrocautery. After coagulation of the vertebral arteries, the rat was removed from the stereotaxic instrument and the surgical wound was sutured. Two longitudinal incisions were then made on the ventral surface of the neck. The two common carotid arteries were exposed and dissected free from surrounding nerves and connective tissue. Reversible atraumatic clamps, fabricated mainly from silicon rubber tubing, were placed around each carotid artery in a manner such that the vessels were not traumatize or occluded. The clamps were externalized through the ventral neck incision. A suture was also placed through the neck dorsal to the carotids, esophagus and trachea, and tied loosely behind the neck. This suture is tied tightly at the time ischemia is induced in order to restrict collateral circulation reaching the brain through the dorsal muscles of the neck. The surgical wounds were then closed. After the surgery, the rats were allowed to recover for 24 hours (free access to water, but no food during this period).
(§2) On the day of testing, test compounds were administered at various times before stroke induction. Strokes (cerebral ischemia) were induced by tightening the clamps around the carotids, thereby stopping blood flow in the carotids. Rats in which strokes were successfully produced lost the righting reflex and became unresponsive to stimuli. Collateral circulatio through the dorsal neck muscles was then restricted by tightening the previously implanted suture. […] After 30 minutes of ischemia, the carotid clamps wer released, the neck suture was loosened, and blood flow to the brain was restored. Following the period of ischemia, the rats were allowed free access to food and water. Rats were again treated with test compounds at various times after the stroke. On the third day after the stroke the animals were sacrificed and their brains were removed, frozen and sectioned through the striatum and hippocampus. Sections were mounted on glass slides and stained with hematoxylin and eosin.
(§3) Two of the areas of the brain that are most susceptible to ischemia induce damage, both in rats and humans, are the CA1 pyramidal cell layer of the hippocampus and the striatal cell layer of the striatum. In animals that remain unresponsive for the 30 minute period of ischemia, the CA1 pyramidal cell layer and the striatal cell layer are completely destroyed. These layers of cells were examined microscopically in histological sections prepared from the hippocampus and striatum. Brain damage was rated according to the following scale:
(§4) 0=no damage, completely intact cell layer
(§5) 1=mild damage, onethird of cell layer dead
(§6) 2=moderate damage, twothirds of cell layer dead
(§7) 3=severe damage, complete destruction of cell layer
(§8) Damage in 10-12 sections from each brain was assessed in order to obtain a accurate estimate of damage. An average damage score was calculated for each treatment group. Scores from treated groups were compared statistically with scores from control groups which received only the vehicle used to suspend the compounds. The level of significance was determined using the Mann WhitneyU-test.

[4] = test system: striatal cell layer of the striatum; assay: Stroke model in rats (four-vessel occlusion), striatal damage; format: in vivo, male Wistar rats
Source text: as §1, §2, §3, §4, §5, §6, §7, §8

[5] = test system: ischemia-induced cell damage caused by middle cerebral artery occlusion; assay: Middle Cerebral Artery Occlusion Stroke Model; format: in vivo, male spontaneously hypertensive rats; conditions: saline
Source text: Strokes were also produced in rats by occluding the middle cerebral artery according to the following procedure. Male spontaneously hypertensive rats were housed in groups of three to four per cage and allowed free access to food and water. The animals were anesthetized with a mixture of 2.5% halothane and air. The anesthetized rats then underwent the following surgical procedure.
A femoral artery of each rat was cannulated to monitor mean arterial pressure and a jugular cannula was inserted in order to provide a means for administering test compounds intravenously. […] The ventral neck area and the area behind each animal's right eye were shaved and washed with antiseptic solution. The right common carotid artery was dissected free of connective tissue through a midline cervical incision and the vessel permanently occluded with a silk ligature. Next, a 1 cm incision perpendicular to, and bisecting a line between the lateral canthus of the right eye and the external auditory canal, was made to expose the temporalis muscle which was retracted and partially excised. Using a dissecting microscope, the right middle cerebral artery was exposed through a 2 mm burr hole drilled 2-3 mm rostral to the fusion of the zygomatic arch with a squamosal bone. Drilling was done under a continuous drip of a 0.9% saline solution to prevent heat injury of the underlying cortex. The dura was cut and retracted to expose the middle cerebral artery.
This artery was occluded in two ways. The first method of occlusion involved permanent cauterization of the artery so that blood flow through the artery was completely eliminated. The second method of occulsion was only temporary (lasting two hours) and involved clamping the artery with microaneurism clips. Test compounds were administered at various times before, during and after occlusion. Each animal's body temperature was maintained at 37° C. during testing using a rectal thermometer connected to a heating pad.
Twenty-four hours after tandem middle cerbral carotid artery occlusion, the test animals were sacrificed and their brains removed and frozen over dry ice. Coronal sections 20 microns thick were cut at half millimeter intervals in a cryostat at -20° C. and dried on a hot plate at 60° C. The sections were then stained with cresyl violet. […] A total infarct volume was then calculated using a computer program that summed all sectional areas measured multiplied by the interval thickness. The lower the infarcted volume obtained, the lower the amount of cell damage caused by the stroke. The level of significance was obtained using Student's "t-test".

[6] = Chemical Abstracts, 74, 96312e (1971); cited from earlier work
[7] = 50 mg/kg rat weight × 29, p.o. once daily, read-out: % Inhibition of Uninjected Paw Volume Inflammation, Days 16-30

Structure (SMILES): CNCc1cc(C(C)(C)C)c(O)c(C(C)(C)C)c1 [N-methyl-3,5-di-t-butyl-4-hydroxybenzylamine]
- rate of blood deoxygenation [1]: increase the rate of blood deoxygenation

Structure (SMILES): CN(C)Cc1cc(C(C)(C)C)c(O)c(C(C)(C)C)c1 [4-[(dimethylamino)methyl]-2,6-bis(1,1-dimethylethyl)phenol]
- inhibition in vivo at 50 mg/kg [2, 7]: 59.7%
- Average Life Span (dystrophic mice (dy/dy)): 120 days
- Damage Score, Hippocampus ([3]; scale 0-3, mean ± SE, 100 mg/kg orally, 2% acacia, time b (2 h pre, 24 h postischemia), control 2.8 ± 0.2): 0.8 ± 0.4
- Damage Score, Striatum ([4]; scale 0-3, mean ± SE, 100 mg/kg orally, 2% acacia, time b (2 h pre, 24 h postischemia), control 2.5 ± 0.5): 0.8 ± 0.3

Structure (SMILES): CCNCc1cc(C(C)(C)C)c(O)c(C(C)(C)C)c1.Cl [4-[(ethylamino)methyl]-2,6-bis(1,1-dimethylethyl)phenol hydrochloride]
- inhibition in vivo at 5 mg/kg ([2]; 5 mg/kg rat weight × 29, p.o. once daily, read-out: % Inhibition of Uninjected Paw Volume Inflammation, Days 16-30): 27.9%
- inhibition in vivo at 10 mg/kg ([2]; 10 mg/kg rat weight × 29, p.o. once daily, read-out: % Inhibition of Uninjected Paw Volume Inflammation, Days 16-30): 19.6%
- inhibition in vivo at 20 mg/kg ([2]; 20 mg/kg rat weight × 29, p.o. once daily, read-out: % Inhibition of Uninjected Paw Volume Inflammation, Days 16-30): 50.8%
- inhibition in vivo at 25 mg/kg ([2]; 25 mg/kg rat weight × 29, p.o. once daily, read-out: % Inhibition of Uninjected Paw Volume Inflammation, Days 16-30): 96.5%
- Infarct Volume ([5]; permanent occlusion, 20/5 mg/kg i.v. (per hour), time c, control 172 ± 19): 122 ± 12 (mm)^3
- Infarct Volume ([5]; temporary occlusion, 10/5 mg/kg i.v., time f (one hour after clamping, then upon clamp removal for 24 h), control 128 ± 17): 74 ± 8 (mm)^3
- Damage Score, Hippocampus ([3]; scale 0-3, mean ± SE, 20 mg/kg / 5 mg/kg per hour i.v., 10% DMSO/TWEEN 80/NaCl, time d (immediately after ischemia, then continuous 24 h), control 2.83 ± 0.12): 1.23 ± 0.47
- Damage Score, Striatum ([4]; scale 0-3, mean ± SE, 20 mg/kg / 5 mg/kg per hour i.v., 10% DMSO/TWEEN 80/NaCl, time d (immediately after ischemia, then continuous 24 h), control 2.37 ± 0.28): 1.20 ± 0.42

Structure (SMILES): CN(C)Cc1cc(C(C)(C)C)c(O)c(C(C)(C)C)c1.Cl [4-[(dimethylamino)methyl]-2,6-bis(1,1-dimethylethyl)phenol hydrochloride]
- inhibition in vivo at 50 mg/kg ([2]; Rattus norvegicus, read-out: % Inhibition of Uninjected Paw Volume Inflammation, Days 16-30, 50 mg/kg rat weight × 29, p.o. once daily): 94.8%
- Infarct Volume ([5]; permanent occlusion, 50/10 mg/kg i.v. (per hour), time c (15 min before occlusion, then 24 h), control 136 ± 7): 91 ± 12 (mm)^3
- Infarct Volume ([5]; temporary occlusion, 50/50/10 mg/kg i.p./i.p./i.v. (per hour), time a (15 min before clamping, 15 min before clamp removal, then 24 h), control 114.4 ± 14.1): 47.9 ± 3.4 (mm)^3
- Infarct Volume ([5]; temporary occlusion, 50/50/10 mg/kg i.p./i.p./i.v. (per hour), time b (15 min after clamping, 15 min before clamp removal, then 24 h), control 101.7 ± 9.1): 35.5 ± 5.3 (mm)^3
- Infarct Volume ([5]; temporary occlusion, 50/50/10 mg/kg i.p./i.p./i.v. (per hour), time b, rats fasted overnight, control 61.9 ± 7.9): 23.1 ± 4.9 (mm)^3
- Damage Score, Hippocampus ([3]; scale 0 (no damage)-3 (severe), mean ± SE, 50 mg/kg orally, 2% acacia, time a (15 min pre, 4 h and 24 h postischemia), control 2.7 ± 0.2): 1.7 ± 0.3
- Damage Score, Striatum ([4]; scale 0 (no damage)-3 (severe), mean ± SE, 50 mg/kg orally, 2% acacia, time a (15 min pre, 4 h and 24 h postischemia), control 2.6 ± 0.2): 1.1 ± 0.2

Structure (SMILES): CNCc1cc(C(C)(C)C)c(O)c(C(C)(C)C)c1.Cl [4-[(methylamino)methyl]-2,6-bis(1,1-dimethylethyl)phenol hydrochloride]
- antioxidative activity of liver lipids [6]: increases the antioxidative activity of liver lipids
- liver tissue regeneration following a partial hepatectomy [6]: increasing liver tissue regeneration following a partial hepatectomy
- inhibition in vivo at 50 mg/kg [2, 7]: 119%
- Infarct Volume ([5]; permanent occlusion, 50 mg/kg i.v. single dose, time e (10 min before occlusion), control 140 ± 23): 123 ± 18 (mm)^3
- Infarct Volume ([5]; permanent occlusion, 10/10 mg/kg i.v. (per hour), time c, control 145 ± 12): 128 ± 11 (mm)^3
- Infarct Volume ([5]; permanent occlusion, 20/5 mg/kg i.v. (per hour), time c, control 133 ± 16): 112 ± 7 (mm)^3
- Infarct Volume ([5]; permanent occlusion, 20/10 mg/kg i.v. (per hour), time c, control 148 ± 9): 90 ± 18 (mm)^3
- Infarct Volume ([5]; permanent occlusion, 50/10 mg/kg i.v. (per hour), time c, control 142 ± 7): 76 ± 12 (mm)^3
- Damage Score, Hippocampus ([3]; scale 0-3, mean ± SE, 10 mg/kg / 10 mg/kg per hour i.v., saline, time d (immediately after ischemia, then continuous 24 h), control 2.4 ± 0.3): 0.75 ± 0.3
- Damage Score, Hippocampus ([3]; scale 0-3, mean ± SE, 50 mg/kg / 10 mg/kg per hour i.v., saline, time d (immediately after ischemia, then continuous 24 h), control 2.6 ± 0.3): 0.66 ± 0.3
- Damage Score, Striatum ([4]; scale 0-3, mean ± SE, 10 mg/kg / 10 mg/kg per hour i.v., saline, time d (immediately after ischemia, then continuous 24 h), control 2.6 ± 0.3): 1.97 ± 0.4
- Damage Score, Striatum ([4]; scale 0-3, mean ± SE, 50 mg/kg / 10 mg/kg per hour i.v., saline, time d (immediately after ischemia, then continuous 24 h), control 2.3 ± 0.4): 1.13 ± 0.4
